Reference: patent US20250024870A1, “NATURAL SUGAR-FREE SYRUP, AND PRODUCTION METHOD THEREOF” (CJ CHEILJEDANG CORPORATION, priority 2021, published 2025)

Key:
Type in all cases: cell-based
[1] = test system: General bacteria, bacteria derived from flavor syrup; test: Microbial challenge test (MCT) in sucrose-zero vanilla syrup, general bacteria; settings: for general bacteria count, Max.: Max. concentration of agent; for general bacteria count, Min.: Min. concentration of agent; for general bacteria count: single concentration as printed in the row
Procedure: (§1) Subsequently, the microbial challenge test (MCT) was conducted in the following order. The experiment was applied to the vanilla syrup, which is the representative among the sucrose syrup, the vanilla syrup, and the red grapefruit syrup, and the applied strains and analysis conditions are shown in Table 14.
(§2) The microbial challenge test (MCT) experiment conditions are as follows: 1) prepare a sucrose-zero vanilla syrup; 2) prepare general bacteria/fungi/spores that have completed proliferation; 3) inject 10^3 cfu/ml of bacteria into a sterilized glass container (100 ml); 4) fill 3) with sucrose-zero vanilla syrup at the filling temperature (80° C. or higher); 5) let it stand after cooling; 6) one day after the cooling of the stationary sample was completed, culture was performed on a weekly basis; and 7) verify the trend of bacterial proliferation or decline for each natural antibacterial agent for 4 weeks.

Fungi (Asp. niger) [2] = test: Minimum inhibitory concentration (MIC), paper disc diffusion method, fungi; settings: legend not given
Procedure: (§3) [table] The minimum inhibitory concentration (MIC) was conducted to confirm the antibacterial activity of each antibacterial agent and the minimum concentration showing antibacterial activity against the target strain, and the paper disc diffusion method was used as the experimental method. […] It was confirmed that if the bacteria had antibacterial activity, the proliferation of bacteria was inhibited as a clear zone was created around the paper.

Spores (B. subtilis) [3] = test: Minimum inhibitory concentration (MIC), paper disc diffusion method, spores; settings: legend not given
Procedure: as §3

Fungi (Asp. niger) [4] = test: Microbial challenge test (MCT) in sucrose-zero vanilla syrup, fungi; settings: for fungi count, Max.: Max. concentration of agent; for fungi count, Min.: Min. concentration of agent; for fungi count: single concentration as printed in the row
Procedure: as §1, §2

[5] = test system: General bacteria (T.A.B), bacteria derived from flavor syrup; test: Minimum inhibitory concentration (MIC), paper disc diffusion method, general bacteria; settings: legend not given
Procedure: as §3

Spores (B. subtilis) [6] = test: Microbial challenge test (MCT) in sucrose-zero vanilla syrup, spores; settings: for spores count, Max.: Max. concentration of agent; for spores count, Min.: Min. concentration of agent; for spores count: single concentration as printed in the row
Procedure: as §1, §2

[7] = immediately after inoculation of target bacteria

Molecule: E-polylisine [E-polylysine]
- general bacteria count, Max. ([1]; after 1 week): 126
- general bacteria count, Min. ([1]; after 1 week): 129
- general bacteria count, Max. ([1]; after 2 weeks): 115
- general bacteria count, Min. ([1]; after 2 weeks): 120
- general bacteria count, Max. ([1]; after 3 weeks): 110
- general bacteria count, Min. ([1]; after 3 weeks): 120
- general bacteria count, Max. ([1]; after 4 weeks): 108
- general bacteria count, Min. ([1]; after 4 weeks): 110
- general bacteria count, Max. [1, 7]: 129
- general bacteria count, Min. [1, 7]: 132
- Antibacterial activity (clear zone), fungi (Fungi (Asp. niger) [2]; 400 ppm): ∘
- Antibacterial activity (clear zone), fungi (Fungi (Asp. niger) [2]; 500 ppm): ∘
- Antibacterial activity (clear zone), fungi (Fungi (Asp. niger) [2]; 1,000 ppm): ∘
- Antibacterial activity (clear zone), spores (Spores (B. subtilis) [3]; 400 ppm): ∘
- Antibacterial activity (clear zone), spores (Spores (B. subtilis) [3]; 500 ppm): ∘
- Antibacterial activity (clear zone), spores (Spores (B. subtilis) [3]; 1,000 ppm): ∘
- fungi count, Max. (Fungi (Asp. niger) [4]; after 1 week): 135
- fungi count, Min. (Fungi (Asp. niger) [4]; after 1 week): 147
- fungi count, Max. (Fungi (Asp. niger) [4]; after 2 weeks): 130
- fungi count, Min. (Fungi (Asp. niger) [4]; after 2 weeks): 137
- fungi count, Max. (Fungi (Asp. niger) [4]; after 3 weeks): 128
- fungi count, Min. (Fungi (Asp. niger) [4]; after 3 weeks): 130
- fungi count, Max. (Fungi (Asp. niger) [4]; after 4 weeks): 125
- fungi count, Min. (Fungi (Asp. niger) [4]; after 4 weeks): 128
- fungi count, Max. (Fungi (Asp. niger) [4]; [7]): 138
- fungi count, Min. (Fungi (Asp. niger) [4]; [7]): 150
- Antibacterial activity (clear zone), general bacteria (T.A.B) ([5]; 200 ppm): ∘
- Antibacterial activity (clear zone), general bacteria (T.A.B) ([5]; 300 ppm): ∘
- Antibacterial activity (clear zone), general bacteria (T.A.B) ([5]; 400 ppm): ∘
- Antibacterial activity (clear zone), general bacteria (T.A.B) ([5]; 500 ppm): ∘
- Antibacterial activity (clear zone), general bacteria (T.A.B) ([5]; 1,000 ppm): ∘
- spores count, Max. (Spores (B. subtilis) [6]; after 1 week): 720
- spores count, Min. (Spores (B. subtilis) [6]; after 1 week): 870
- spores count, Max. (Spores (B. subtilis) [6]; after 2 weeks): 773
- spores count, Min. (Spores (B. subtilis) [6]; after 2 weeks): 850
- spores count, Max. (Spores (B. subtilis) [6]; after 3 weeks): 780
- spores count, Min. (Spores (B. subtilis) [6]; after 3 weeks): 800
- spores count, Max. (Spores (B. subtilis) [6]; after 4 weeks): 720
- spores count, Min. (Spores (B. subtilis) [6]; after 4 weeks): 830
- spores count, Max. (Spores (B. subtilis) [6]; [7]): 720
- spores count, Min. (Spores (B. subtilis) [6]; [7]): 880

Molecule: C/C=C/C=C/C(=O)[O-].[K+] [Potassium sorbate, reference compound]
- general bacteria count ([1]; after 1 week): 93
- general bacteria count ([1]; after 2 weeks): 83
- general bacteria count ([1]; after 3 weeks): 80
- general bacteria count ([1]; after 4 weeks): 78
- general bacteria count [1, 7]: 98
- Antibacterial activity (clear zone), fungi (Fungi (Asp. niger) [2]; 300 ppm): ∘
- Antibacterial activity (clear zone), fungi (Fungi (Asp. niger) [2]; 400 ppm): ∘
- Antibacterial activity (clear zone), fungi (Fungi (Asp. niger) [2]; 500 ppm): ∘
- Antibacterial activity (clear zone), fungi (Fungi (Asp. niger) [2]; 1,000 ppm): ∘
- Antibacterial activity (clear zone), spores (Spores (B. subtilis) [3]; 300 ppm): ∘
- Antibacterial activity (clear zone), spores (Spores (B. subtilis) [3]; 400 ppm): ∘
- Antibacterial activity (clear zone), spores (Spores (B. subtilis) [3]; 500 ppm): ∘
- Antibacterial activity (clear zone), spores (Spores (B. subtilis) [3]; 1,000 ppm): ∘
- fungi count (Fungi (Asp. niger) [4]; after 1 week): 63
- fungi count (Fungi (Asp. niger) [4]; after 2 weeks): 66
- fungi count (Fungi (Asp. niger) [4]; after 3 weeks): 60
- fungi count (Fungi (Asp. niger) [4]; after 4 weeks): 58
- fungi count (Fungi (Asp. niger) [4]; [7]): 68
- Antibacterial activity (clear zone), general bacteria (T.A.B) ([5]; 300 ppm): ∘
- Antibacterial activity (clear zone), general bacteria (T.A.B) ([5]; 400 ppm): ∘
- Antibacterial activity (clear zone), general bacteria (T.A.B) ([5]; 500 ppm): ∘
- Antibacterial activity (clear zone), general bacteria (T.A.B) ([5]; 1,000 ppm): ∘
- spores count (Spores (B. subtilis) [6]; after 1 week): 873
- spores count (Spores (B. subtilis) [6]; after 2 weeks): 876
- spores count (Spores (B. subtilis) [6]; after 3 weeks): 850
- spores count (Spores (B. subtilis) [6]; after 4 weeks): 860
- spores count (Spores (B. subtilis) [6]; [7]): 880
